Assay results taken from article PMC6503653 (European journal of medicinal chemistry, 2018).

Tests used:
[1] = tested on: E. coli and the human cytosolic A-site; assay: Selectivity factor, E. coli versus human cytosolic A-site; assay type: binding; settings: 5.75 × IC50(human)/IC50(E. coli); above 5.75 = selectivity to bacterial A-site
[2] = tested on: 4 MRSA NEO-resistant strains; assay: MIC against the MRSA NEO-resistant strains; assay type: cell-based, Staphylococcus aureus
APH(2″)-Ia = APH(2″)-Ia (Staphylococcus aureus, UniProt P0A0C1); assay: AME modification of conjugates, APH; assay type: biochemical
E. coli H4H = assay: MIC and growth inhibition, microdilution; assay type: cell-based, Escherichia coli; settings: concentration not given
L1-stage C. elegans = assay: Toxicity in C. elegans, MTT assay; assay type: in vivo, Caenorhabditis elegans; settings: lowest concentrations used (3.13 – 1.56 μM), 24 h
rRNA A-site = settings: read-out: IC50, F-NEO screening test; range over rRNA A-sites; cited from earlier work

Chain of APH(2″)-Ia (P0A0C1 whole entry): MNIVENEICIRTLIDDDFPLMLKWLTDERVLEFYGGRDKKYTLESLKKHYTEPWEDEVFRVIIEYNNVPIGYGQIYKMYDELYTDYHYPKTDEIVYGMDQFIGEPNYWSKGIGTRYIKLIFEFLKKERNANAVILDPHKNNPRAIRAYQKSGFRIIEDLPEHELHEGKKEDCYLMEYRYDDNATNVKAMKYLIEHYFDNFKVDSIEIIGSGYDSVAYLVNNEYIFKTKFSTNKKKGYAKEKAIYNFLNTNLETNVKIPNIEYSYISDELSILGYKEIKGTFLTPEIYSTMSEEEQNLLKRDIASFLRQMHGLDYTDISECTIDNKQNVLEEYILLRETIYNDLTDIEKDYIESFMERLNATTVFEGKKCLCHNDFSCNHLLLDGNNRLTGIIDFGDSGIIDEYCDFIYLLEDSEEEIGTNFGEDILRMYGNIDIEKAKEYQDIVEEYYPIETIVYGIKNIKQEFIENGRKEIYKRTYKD

Row | Compound | Selectivity factor [1] | MIC values times lower than that of NEO [2] | also measured
1 | NC[C@@H]1O[C@H](O[C@H]2[C@@H](O)[C@H](O[C@@H]3[C@@H](O)[C@H](N)C[C@H](N)[C@H]3O[C@H]3O[C@H](CN)[C@@H](O)[C@H](O)[C@H]3N)O[C@@H]2CNC(=O)Cc2ccc3ccc4cccc5ccc2c3c45)[C@H](N)[C@@H](O)[C@@H]1O [Compound 10] | 7.12 | – | –
2 | NC[C@@H]1O[C@H](O[C@H]2[C@@H](O)[C@H](O[C@@H]3[C@@H](O)[C@H](N)C[C@H](N)[C@H]3O[C@H]3O[C@H](CN)[C@@H](O)[C@H](O)[C@H]3N)O[C@@H]2CNC(=O)CCc2ccc3ccc4cccc5ccc2c3c45)[C@H](N)[C@@H](O)[C@@H]1O [Compound 11] | 8.29 | – | –
3 | NC[C@@H]1O[C@H](O[C@H]2[C@@H](O)[C@H](O[C@@H]3[C@@H](O)[C@H](N)C[C@H](N)[C@H]3O[C@H]3O[C@H](CN)[C@@H](O)[C@H](O)[C@H]3N)O[C@@H]2CNC(=O)CCCc2ccc3ccc4cccc5ccc2c3c45)[C@H](N)[C@@H](O)[C@@H]1O [Compound 12] | 6.76 | 4-16 times | –
4 | NC[C@@H]1O[C@H](O[C@H]2[C@@H](O)[C@H](O[C@@H]3[C@@H](O)[C@H](N)C[C@H](N)[C@H]3O[C@H]3O[C@H](CN)[C@@H](O)[C@H](O)[C@H]3N)O[C@@H]2CSCCNC(=O)Cc2ccc3ccc4cccc5ccc2c3c45)[C@H](N)[C@@H](O)[C@@H]1O [Compound 13] | 5.87 | 4-16 times | –
5 | NC[C@@H]1O[C@H](O[C@H]2[C@@H](O)[C@H](O[C@@H]3[C@@H](O)[C@H](N)C[C@H](N)[C@H]3O[C@H]3O[C@H](CN)[C@@H](O)[C@H](O)[C@H]3N)O[C@@H]2CSCCNC(=O)CCc2ccc3ccc4cccc5ccc2c3c45)[C@H](N)[C@@H](O)[C@@H]1O [Compound 14] | 6.14 | – | –
6 | NC[C@@H]1O[C@H](O[C@H]2[C@@H](O)[C@H](O[C@@H]3[C@@H](O)[C@H](N)C[C@H](N)[C@H]3O[C@H]3O[C@H](CN)[C@@H](O)[C@H](O)[C@H]3N)O[C@@H]2CSCCNC(=O)CCCc2ccc3ccc4cccc5ccc2c3c45)[C@H](N)[C@@H](O)[C@@H]1O [Compound 15] | 6.80 | 4-16 times | modification by APH(2″)-Ia relative to NEO (APH(2″)-Ia): increased activity; reduction in growth / growth inhibition (E. coli H4H): * A 30% reduction in growth was observed for compounds 15 and 16 with E. coli H4H.
7 | NC[C@@H]1O[C@H](O[C@H]2[C@@H](O)[C@H](O[C@@H]3[C@@H](O)[C@H](N)C[C@H](N)[C@H]3O[C@H]3O[C@H](CN)[C@@H](O)[C@H](O)[C@H]3N)O[C@@H]2CSCCNC(=S)NCCCCCCNC(=O)CCCc2ccc3ccc4cccc5ccc2c3c45)[C@H](N)[C@@H](O)[C@@H]1O [Compound 16] | 5.70 | 4-16 times | reduction in growth / growth inhibition (E. coli H4H): * A 30% reduction in growth was observed for compounds 15 and 16 with E. coli H4H.
8 | NC[C@@H]1O[C@H](O[C@H]2[C@@H](O)[C@H](O[C@@H]3[C@@H](O)[C@H](N)C[C@H](N)[C@H]3O[C@H]3O[C@H](CN)[C@@H](O)[C@H](O)[C@H]3N)O[C@@H]2CO)[C@H](N)[C@@H](O)[C@@H]1O [NEO, Neomycin B] | – | – | toxicity / larvae viability compared with the untreated control (L1-stage C. elegans): no significant difference; IC50 (rRNA A-site): 0.068 to 0.114 µM
